Earlier results on four molecules are cited in patent US20110286960A1, “CANCER THERAPY BY DOCETAXEL AND GRANULOCYTE COLONY-STIMULATING FACTOR (G-CSF)” (OPTIMATA LTD., priority 2008, published 2011).

In series [1] the test system is neutrophils. As to conditions: for nadir of neutrophil level: human, in vivo.
For series [2] the following is noted: Baker et al., 2004, mean ± STD.
Series [3] deals with neutrophils. As to conditions: G-CSF treatment one day post-chemotherapy.
[4] abbreviates: docetaxel clinical trial results (17, 28).

Like-named read-outs stand apart in the source and are kept apart here.

Turning to `CCc1c2c(nc3ccc(OC(=O)N4CCC(N5CCCCC5)CC4)cc13)-c1cc3c(c(=O)n1C2)COC(=O)[C@]3(O)CC` [Irinotecan], the “nadir of neutrophil level” value in series [1] was 9 days.

As for `CC(=O)O[C@@]12CO[C@@H]1C[C@H](O)[C@@]1(C)C(=O)[C@H](O)C3=C(C)[C@@H](OC(=O)[C@H](O)[C@@H](NC(=O)OC(C)(C)C)c4ccccc4)C[C@@](O)([C@@H](OC(=O)c4ccccc4)[C@H]21)C3(C)C` [Docetaxel], the “docetaxel clearance, CYP3A-affected clinically observed range” value is given as 5.4-29.1 Uhr/m^2. In series [2] (35 mg/m^2), the AUC is 1.32 ± 0.42 µg·h/mL, the Clearance is 29.10 ± 10.20 L/h*m^2, the Cmax was 1.85 ± 0.73 µg/mL and the Terminal half life is recorded as 15.60 ± 12.00 h. Besides, in series [2] (100 mg/m^2), the AUC was 5.62 ± 2.12 µg·h/mL, the Clearance is recorded as 19.60 ± 5.60 L/h*m^2, the Cmax is 4.15 ± 1.35 µg/mL and the Terminal half life is recorded as 17.20 ± 6.20 h. The “patients suffering grade 3/4 neutropenia” value in series [1] (14 patients, weekly docetaxel 40-45 mg/m^2, three consecutive weeks in cycles of four weeks (38)) is listed as “Half”. Besides, in series [1] (setting [4]), the “nadir recorded on days” value was 6 to 10 days and the “recovery to baseline recorded on days” value was 16 to 22 days. Moreover, the neutropenia result in series [1] (docetaxel dose up to 145 mg/m^2, as reported in (36)) was “acceptable neutropenia”. In series [1] (patients receiving 30-35 mg/m2/week (38)), the “patients suffering grade 3/4 neutropenia” value is “none”. Besides, the “docetaxel clearance, observed range” value (CYP3A inter-individual variability (27)) is on record as 5.4-29.1 L/hr/m^2.

As for `CC[C@]12C=CCN3CC[C@@]4(c5cc([C@@]6(C(=O)OC)C[C@@H]7C[C@@H](C(C)(F)F)CN(Cc8c6[nH]c6ccccc86)C7)c(OC)cc5N(C)[C@H]4[C@@](O)(C(=O)OC)[C@@H]1OC(C)=O)[C@@H]32` [vinflunine], in series [1], the “nadir of neutrophil level” value is 20 days.

B1: G-CSF: Granulocyte Colony-Stimulating Factor, neutropenia alleviating support therapy (protein, UniProt P09919 31-207, looked up)
Granulocyte …: TPLGPASSLPQSFLLKCLEQVRKIQGDGAALQEKLVSECATYKLCHPEELVLLGHSLGIPWAPLSSCPSQALQLAGCLSQLHSGLFLYQGLLQALEGISPELGPTLDTLQLDVADFATTIWQQMEELGMAPALQPTQGAMPAFASAFQRRAGGVLVASHLQSFLEVSYRVLRHLAQP
For the molecule B1, the “grade 4 neutropenia reported” value in series [1] (G-CSF post-docetaxel, locally advanced breast cancer (10) or advanced NSCLC patients (11)) is given as “No grade 4 neutropenia”. In addition, in series [3], the effect on neutropenia result was “speeds up and aggravates neutropenia”.

A word on the AUC: it is the area under the concentration-time curve, a measure of exposure. By Cmax is commonly meant the maximum level reached in the sampled fluid or tissue.
